From ChEMBL document CHEMBL1201862, “PubChem BioAssay data set” (2004)
Activity calls are given as the source filed them.

Tests used:
A549 = test: viability loss in A549 cells – cell-based, plate reader, cherry-pick samples, cytotoxicity control, dose response (AID 687028); assay type: functional; settings: Homo sapiens
[1] = target: Eukaryotic translation initiation factor 4E (Mus musculus, UniProt P63073); test: blockers of eIF4G binding by eIF4E – biochemical, TR-FRET, dose response (AID 855); assay type: functional;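 note: potency for disrupting eIF4E binding to eIF4GI seen as loss of FRET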
Paired box protein Pax-8 = Paired box protein Pax-8 (Homo sapiens, UniProt Q06710); test: PAX8 transcriptional activity inhibition in RMG-I – RMG-I cells, luciferase, cherry-pick, dose response (AID 687027); assay type: functional, cell-based;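 note: luciferase reporter driven by Pax8 target thyroperoxidase promoter measured by SteadyGlo luminescence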
[2] = blockade of melanocortin 4 receptor signaling – cell-based, plate reader, cherry pick, counter-screen for LGR2 antagonist project, dose response (AID 743444); assay type: functional;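 note: transfected HEK 293 cells stimulated with alpha-MSH peptide; potency of inhibitors of the alpha-MSH evoked signal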
HEK293 [3] = test: cells; assay type: functional, cell-based; settings: Homo sapiens
HEK293 [4] = test: cells; assay type: functional, cell-based; settings: Homo sapiens; remark: listed apart in the source
[5] = blockers of bursicon-stimulated LGR2 cAMP reporter – cell-based, HEK293, CRE-luciferase reporter, cherry pick, set 2, dose response (AID 743343); assay type: functional;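 note: transfected cells were stimulated with diluted bursicon conditioned medium after compound addition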
[6] = target: Nucleotide-binding oligomerization domain-containing protein 2 (Homo sapiens, UniProt Q9HC29); test: inhibition of NOD2-driven NF-kB reporter – cell-based, luminescence, uHTS, HEK293 (AID 1566); assay type: functional
HEK293 [7] = test: inhibition of NOD1-driven NF-kB reporter – cell-based, luminescence, uHTS, primary screen (AID 1578); assay type: functional; settings: Homo sapiens
[8] = A549 cell cytotoxicity, dose response, cytotoxicity control, plate reader, cherry-pick, antagonist series (AID 743412); assay type: functional, cell-based
Protein skinhead-1 = target: T1, Protein skinhead-1 (Caenorhabditis elegans, UniProt P34707); assay type: functional
T1 sequence (P34707 whole entry): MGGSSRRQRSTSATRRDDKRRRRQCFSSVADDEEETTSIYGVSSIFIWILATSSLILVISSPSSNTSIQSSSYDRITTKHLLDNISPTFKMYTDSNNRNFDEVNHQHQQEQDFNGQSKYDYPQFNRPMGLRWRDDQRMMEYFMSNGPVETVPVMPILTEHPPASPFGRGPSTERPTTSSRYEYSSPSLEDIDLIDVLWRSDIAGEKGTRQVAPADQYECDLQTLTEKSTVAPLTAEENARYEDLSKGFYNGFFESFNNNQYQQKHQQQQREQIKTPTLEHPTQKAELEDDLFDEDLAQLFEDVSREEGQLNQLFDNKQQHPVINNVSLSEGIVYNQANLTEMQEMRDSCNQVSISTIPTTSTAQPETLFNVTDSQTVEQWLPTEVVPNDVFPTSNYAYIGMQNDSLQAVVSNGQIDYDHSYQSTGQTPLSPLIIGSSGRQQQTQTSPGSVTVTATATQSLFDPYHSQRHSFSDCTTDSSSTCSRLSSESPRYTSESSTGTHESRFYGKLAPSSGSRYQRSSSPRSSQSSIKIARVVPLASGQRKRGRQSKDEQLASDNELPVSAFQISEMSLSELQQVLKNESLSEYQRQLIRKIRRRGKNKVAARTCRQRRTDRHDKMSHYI

HEK293 [9] = test: cells; assay type: functional, cell-based; settings: Homo sapiens; remark: listed apart in the source
[10] = general cell-killing toxicity readout – plate reader, dry powder samples, cytotoxicity control for PAX8 inhibitor project, dose response (AID 743021); assay type: functional, cell-based
[11] = toxicity toward HepG2 liver cells – cell-based, plate reader, cherry-pick, antagonist series, cytotoxicity control, dose response (AID 743416); assay type: functional
[12] = viability loss in HEK293 cells – cell-based, plate reader, cherry-picked samples, cytotoxicity control, dose response (AID 743446); assay type: functional
[13] = target: T2, Heat shock factor protein 1 (Mus musculus, UniProt P38532); test: decrease of HSF1-responsive luciferase luminescence – cell-based, NIH3T3, dose retest, confirmation (AID 2382); assay type: functional;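 note: NIH3T3 fibroblasts with HSF1-driven luciferase reporter stressed by proteasome inhibitor MG132; luminescence from HSF1-driven luciferase expression after 8 hours of MG132 stress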
T2 sequence (P38532 whole entry): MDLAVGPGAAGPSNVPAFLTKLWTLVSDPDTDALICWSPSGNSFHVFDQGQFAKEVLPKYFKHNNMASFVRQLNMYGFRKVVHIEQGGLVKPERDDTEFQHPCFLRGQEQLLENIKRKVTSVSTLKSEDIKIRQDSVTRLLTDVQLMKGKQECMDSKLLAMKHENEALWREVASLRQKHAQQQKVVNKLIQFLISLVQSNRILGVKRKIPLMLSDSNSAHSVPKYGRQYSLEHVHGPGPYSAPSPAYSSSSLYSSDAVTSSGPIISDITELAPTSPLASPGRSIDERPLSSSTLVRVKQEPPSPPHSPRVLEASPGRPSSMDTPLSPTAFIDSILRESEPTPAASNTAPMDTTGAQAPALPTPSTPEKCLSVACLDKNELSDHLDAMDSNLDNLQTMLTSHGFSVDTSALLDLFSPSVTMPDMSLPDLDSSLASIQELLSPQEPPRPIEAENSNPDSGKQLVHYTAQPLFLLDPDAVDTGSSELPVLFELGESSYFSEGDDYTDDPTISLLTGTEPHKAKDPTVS

HEK293 [14] = test: NOD2 signaling inhibitors in MDP-stimulated cells, cell-based, uHTS, luminescence (AID 2001); assay type: functional; settings: Homo sapiens
cells [15] = test: cells
Major prion protein = Major prion protein (Homo sapiens, UniProt P04156); assay type: functional, cell-based
[16] = target: Long-chain-fatty-acid--AMP ligase FadD28 (Mycobacterium tuberculosis, UniProt P9WQ59); test: Fluorescence polarization aasay to screen for inhibitors that compete for the binding of FadD28 to a bisubstrate Measured in Biochemical System Using Plate Reader - 2147-01_Inhibitor_Dose_CherryPick_Activity.; assay type: functional, Mycobacterium tuberculosis H37Rv
cells [17] = test: cells; remark: listed apart in the source
[18] = target: Fructose-bisphosphate aldolase (Mycobacterium tuberculosis, UniProt P9WQA3); test: Fluorescence-based biochemical high throughput dose response assay for inhibitors of the fructose-bisphosphate aldolase (FBA) of M. tuberculosis.; assay type: functional
[19] = target: T3, Methionyl-tRNA synthetase, putative (Trypanosoma brucei brucei, UniProt Q38C91); assay type: functional, Trypanosoma brucei brucei strain 927/4 GUTat10.1
T3 sequence (Q38C91 whole entry): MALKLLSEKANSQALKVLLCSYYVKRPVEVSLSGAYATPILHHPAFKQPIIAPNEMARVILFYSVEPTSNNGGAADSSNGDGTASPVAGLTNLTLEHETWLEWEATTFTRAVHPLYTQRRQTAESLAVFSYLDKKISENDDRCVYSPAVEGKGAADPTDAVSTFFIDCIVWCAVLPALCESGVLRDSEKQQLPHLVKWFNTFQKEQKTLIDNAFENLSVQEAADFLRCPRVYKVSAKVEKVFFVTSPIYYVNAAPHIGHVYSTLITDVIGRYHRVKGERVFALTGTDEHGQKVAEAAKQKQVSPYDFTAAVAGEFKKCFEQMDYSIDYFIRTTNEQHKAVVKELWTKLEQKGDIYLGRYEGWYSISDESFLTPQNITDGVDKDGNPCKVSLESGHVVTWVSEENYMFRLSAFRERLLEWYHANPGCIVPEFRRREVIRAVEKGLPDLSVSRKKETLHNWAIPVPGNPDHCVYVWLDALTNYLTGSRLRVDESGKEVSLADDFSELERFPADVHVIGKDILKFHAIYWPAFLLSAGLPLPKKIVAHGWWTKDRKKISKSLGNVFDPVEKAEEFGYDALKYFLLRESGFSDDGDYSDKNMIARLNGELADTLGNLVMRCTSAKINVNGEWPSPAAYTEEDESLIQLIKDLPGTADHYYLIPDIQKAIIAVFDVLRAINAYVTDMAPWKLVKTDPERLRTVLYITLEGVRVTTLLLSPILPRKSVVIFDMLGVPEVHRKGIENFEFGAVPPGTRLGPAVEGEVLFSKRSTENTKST

[20] = target: T3, Methionyl-tRNA synthetase, putative; assay type: functional, Trypanosoma brucei brucei strain 927/4 GUTat10.1; remark: listed apart in the source
[21] = Counterscreen for inhibitors of Trypanosoma brucei methionyl tRNA synthetase (MetRS): Luminescence-based cell-based high throughput dose response assay to identify compounds that are cytotoxic to Jurkat human T lymphocyte cells.; assay type: functional
[22] = Luminescence Cell-Based Dose Confirmation HTS to Identify Inhibitors of Platelet Dense Granule Release. [Related pubchem assays: 1663 (Primary HTS), 1678 (Summary of Project)]; assay type: functional
[23] = target: Luciferin 4-monooxygenase (Photinus pyralis, UniProt P08659); test: inhibition of purified Photinus pyralis luciferase – biochemical, luminescence, dose response (AID 1891)
[24] = target: T4, Oxysterols receptor LXR-beta (Homo sapiens, UniProt P55055); assay type: functional, cell-based;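 note: agonist activity at LXR measured by a cell-based luminescence readout across a dose range, run as a counterscreen for daf-12 agonists; HEK293 cells with Gal4-LXR fusion and GAL4-driven luciferase reporter; potency for activation of Gal4-LXR reporter so compounds are agonists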
T4 sequence (P55055 whole entry): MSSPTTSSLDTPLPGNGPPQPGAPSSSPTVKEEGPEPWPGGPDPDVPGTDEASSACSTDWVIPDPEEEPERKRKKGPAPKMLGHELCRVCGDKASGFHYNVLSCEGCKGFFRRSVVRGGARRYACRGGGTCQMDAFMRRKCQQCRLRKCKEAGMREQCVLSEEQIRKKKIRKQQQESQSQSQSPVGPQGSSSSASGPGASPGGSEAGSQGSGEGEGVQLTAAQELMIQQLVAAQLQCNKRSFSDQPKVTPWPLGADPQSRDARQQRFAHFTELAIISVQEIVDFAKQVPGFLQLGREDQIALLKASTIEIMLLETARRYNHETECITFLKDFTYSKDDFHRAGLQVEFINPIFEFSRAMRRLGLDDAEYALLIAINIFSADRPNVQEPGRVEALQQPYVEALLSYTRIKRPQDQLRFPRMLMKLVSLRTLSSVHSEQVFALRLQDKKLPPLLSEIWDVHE

[25] = cytotoxicity in HEK293 background cells – cell-based, dry powder, set 2, counter-screen for EBV LMP1 inhibitor project, dose response (AID 624374); assay type: functional
[26] = viability loss in HeLa cells – cytotoxicity control for MgcRacGAP inhibitor project, dose response (AID 624300); assay type: functional
[27] = target: T5, Rac GTPase-activating protein 1 (Homo sapiens, UniProt Q9H0H5); test: blockers of MgcRacGAP-driven Rac1 GTP hydrolysis – biochemical, ADP Hunter fluorescence, primary and confirmatory, confirmation (AID 624330); assay type: functional
T5 sequence (Q9H0H5 whole entry): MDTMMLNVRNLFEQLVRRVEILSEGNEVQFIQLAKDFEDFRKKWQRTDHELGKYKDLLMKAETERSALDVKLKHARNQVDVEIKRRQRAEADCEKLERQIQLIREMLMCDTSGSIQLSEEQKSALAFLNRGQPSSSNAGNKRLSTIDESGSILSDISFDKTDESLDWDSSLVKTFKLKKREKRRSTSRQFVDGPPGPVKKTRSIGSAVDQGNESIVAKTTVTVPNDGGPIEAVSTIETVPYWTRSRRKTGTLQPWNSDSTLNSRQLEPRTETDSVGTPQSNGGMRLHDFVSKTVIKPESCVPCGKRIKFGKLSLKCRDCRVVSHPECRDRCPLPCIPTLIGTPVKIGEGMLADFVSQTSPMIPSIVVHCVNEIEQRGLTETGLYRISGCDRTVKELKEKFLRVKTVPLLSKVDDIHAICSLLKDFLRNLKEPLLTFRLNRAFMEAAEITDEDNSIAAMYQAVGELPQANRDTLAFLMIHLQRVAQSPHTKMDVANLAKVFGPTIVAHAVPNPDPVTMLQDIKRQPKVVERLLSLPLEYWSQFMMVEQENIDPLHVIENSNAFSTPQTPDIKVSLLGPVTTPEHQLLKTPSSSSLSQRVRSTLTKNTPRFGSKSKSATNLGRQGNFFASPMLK

Compound: COc1ccc(OC)c(S(=O)(=O)N2CCN(c3c(C)cccc3C)CC2)c1
- AC50 (A549): 20.8 µM (active)
- IC50 [1]: > 64 µM (inactive)

Compound: CC(C)c1ccc(-c2nc3ccccc3s2)cc1
- AC50 (Paired box protein Pax-8): 5.31 µM (active)
- AC50 [2]: < 0.068 µM (active)
- IC50 (HEK293 [3]): > 20 µM (inactive)
- IC50 (HEK293 [4]): > 20 µM (inactive)
- AC50 [5]: 0.133 µM (active)
- EC50 [6]: 0.02 µM (active)
- EC50 (HEK293 [7]): 4.67 µM (active)
- AC50 [8]: 22.8 µM (active)
- IC50 (Protein skinhead-1): 75.6 µM (inactive)
- IC50 (HEK293 [9]): 0.478 µM (active)
- AC50 [10]: 7.87 µM (active)
- AC50 [11]: > 52 µM (inactive)
- AC50 [12]: 34 µM (active)
- EC50 [13]: < 0.16 µM (active)
- IC50 (HEK293 [14]): 3.21 µM (active)

Compound: COc1ccc(NC(=O)CCSc2ccc3ccccc3n2)cc1
- IC50 (cells [15]): > 138 µM (inactive)
- IC50 (Major prion protein): 4.52 µM (active)

Compound: COc1cc(C(S)=NCc2ccccc2)cc(Br)c1O
- AC50 [16]: 53.6 µM (active)

Compound: COc1cccc2c(=O)c3c(cnn3C)n(C)c12
- AC50 (cells [17]): 2.16 µM (active)

Compound: Cc1cc(OCC(=O)NCCc2ccc(S(N)(=O)=O)cc2)c2c(C)c(C)c(=O)oc2c1
- IC50 [18]: 1.1 µM (active)

Compound: COc1ccc(CCN2C(=S)N(C)C(=O)C2CC(=O)Nc2ccc(F)cc2)cc1 (stereo unspecified)
- IC50 [19]: 2.69 µM (active)
- IC50 [20]: 6.54 µM (active)
- IC50 [21]: 32.7 µM (inactive)

Compound: Cc1csc(NC(=O)c2cn3ccccc3n2)n1
- EC50 [22]: 4.85 µM (active)
- AC50 [2]: 1.92 µM (active)
- AC50 [5]: 2.16 µM (active)
- EC50 [23]: 8.32 µM (active)
- AC50 [8]: > 52 µM (inactive)
- AC50 [11]: > 52 µM (inactive)
- AC50 [12]: 47.2 µM (active)

Compound: CCOC(=O)c1ccc(NC(S)=NNC(=O)C2(C)CC2(Cl)Cl)cc1 (stereo unspecified)
- AC50 [16]: 13.8 µM (active)

Compound: CCN1C(=O)C(CC(=O)Nc2ccc(OC)cc2)N(CCc2ccc(OC)cc2)C1=S (stereo unspecified)
- IC50 [19]: 5.11 µM (active)
- IC50 [20]: 13.1 µM (inactive)
- IC50 [21]: 52.4 µM (inactive)

Compound: O=C(CC(=O)c1cccs1)c1ccncc1
- EC50 [24]: > 67.5 µM (inactive)

Compound: CN(C)/C=N/C(=S)Nc1ccc(Cl)cc1
- EC50 [24]: > 67.5 µM (inactive)

Compound: Cc1noc(C)c1S(=O)(=O)Nc1ccc2c(c1)C(=O)N([C@@H](C)CO)C[C@@H](C)[C@H](CN(C)Cc1ccc(C(F)(F)F)cc1)OCCCC[C@H](C)O2
- AbsAC35 [25]: 151.31 µM

Compound: Cc1c(O)ccc(/C(Cc2ccc3ccccc3n2)=N\O)c1O
- CC50 [26]: 100 µM (active)
- IC50 [27]: 62.1 µM (active)
